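Method: 48-hour compound exposure of cells in 96-well plates, five concentrations, linear interpolation of endpoints. GI50 marks 50% less growth. TGI is the concentration that stops growth completely.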
Experiments:
Assay in all cases: DTP human tumour cell line panel, 48 h
[1] = tested on: CAKI-1 renal
[2] = tested on: COLO 205 colon
[3] = tested on: DU-145 prostate
[4] = tested on: HCT-15 colon
[5] = tested on: HL-60(TB) leukemia
[6] = tested on: K-562 leukemia
[7] = tested on: NCI-H226 lung
[8] = tested on: NCI-H23 lung
[9] = tested on: UACC-62 melanoma
[10] = tested on: SR leukemia

SMILES | TGI [1] [µM] | TGI [2] [µM] | TGI [3] [µM] | TGI [4] [µM] | TGI [5] [µM] | TGI [6] [µM] | TGI [7] [µM] | TGI [8] [µM] | TGI [9] [µM] | TGI [10] [µM] | GI50 [2] [nM] | GI50 [3] [µM] | GI50 [4] [µM] | GI50 [6] [µM] | GI50 [7] [nM] | GI50 [8] [µM] | GI50 [10] [µM] | GI50 [1] [µM] | GI50 [9] [µM]
CC(=O)OC12c3ccccc3C(c3ccccc31)C1C(=O)N(c3ccccn3)C(=O)C12 (stereo not drawn) | > 100 | > 100 | > 100 | > 100 | > 100 | > 100 | > 100 | > 100 | > 100 |  |  |  |  |  |  |  |  |  | 
Cc1cccc2c1c1ccc3c(c1n2C)C(=O)C=CC3=O | 10.4 | 6.26 |  | 10.5 | 2.94 | 6.03 | 32.8 | 29.3 | 26.5 | 4.45 |  |  |  |  |  |  |  |  | 
CCOC(=O)C(C)Sc1nnc(COc2ccccc2OC)n1-c1ccccc1 (stereo not drawn) | > 100 | > 100 |  | 30.6 | > 100 | > 100 | > 100 | > 100 | > 100 |  |  |  |  |  |  |  |  |  | 
Cc1ccc(S(=O)(=O)[C@@H](Cl)[C@H]2N=C(Cl)NN=C2c2ccccc2)cc1 | > 100 | 75 | 70.9 | 54.5 |  | > 100 | 61 | 63.1 | 44 | > 100 |  |  |  |  |  |  |  |  | 
Cc1ccc(-c2nnc(CCCCCCCCc3nnc(-c4ccc(C)cc4O)n3N)n2N)c(O)c1 | > 100 | > 100 | > 100 | > 100 |  |  |  | > 100 | > 100 | > 100 |  |  |  |  |  |  |  |  | 
COC(=O)C(=O)C(C(=O)C(=O)Nc1cccc([N+](=O)[O-])c1)c1nc2ccc(Cl)cc2[nH]c1=O (stereo not drawn) | > 100 | > 100 | > 100 | > 100 | > 100 |  | > 100 | > 100 | > 100 |  |  |  |  |  |  |  |  |  | 
COC(=O)CC(C(C(=O)OCc1ccccc1)C(C)O)N1C(=O)OC(c2ccccc2)C1c1ccccc1 (stereo not drawn) |  | > 100 |  | > 100 | > 100 | > 100 | > 100 | > 100 | > 100 | > 100 |  |  |  |  |  |  |  |  | 
CCSCN(C)c1nc(N(C)C)nc(N(C)C)n1 | > 100 | > 100 |  | > 100 | 81.9 | > 100 |  | > 100 | > 100 | > 100 |  |  |  |  |  |  |  |  | 
CCCc1c(C(=O)OCC)[nH]c(-c2ccc(-c3[nH]c(C(=O)OCC)c(CCC)c3C(=O)OCC)s2)c1C(=O)OCC | > 100 | > 100 |  | > 100 | > 100 | > 100 | > 100 | > 100 | > 100 | > 100 |  |  |  |  |  |  |  |  | 
NC(Cc1c[nH]c2cc([N+](=O)[O-])ccc12)C(=O)O (stereo not drawn) | > 100 | > 100 | > 100 | > 100 |  | > 100 | > 100 | > 100 | > 100 | > 100 |  |  |  |  |  |  |  |  | 
COc1cc(C2C(Cl)C(=O)N2NC(=O)c2ccc(NC(C)=O)cc2)ccc1O (stereo not drawn) | > 100 | > 100 |  | > 100 | > 100 | > 100 | > 100 | > 100 | > 100 |  |  |  |  |  |  |  |  |  | 
CS[C@]12[C@@H]3C(=O)N(C)C(=O)[C@@H]3[C@](C)(C(=O)N1C)C(=O)N2c1ccccc1 | > 100 | > 100 | > 100 | > 100 | > 100 |  | > 100 | > 100 | > 100 |  |  |  |  |  |  |  |  |  | 
COC(=O)CCc1c(Cc2ccc[nH]2)[nH]c(C(=O)OCc2ccccc2)c1C | 64.7 | 32.9 | > 100 | 36.3 |  | 58.5 | 35.4 | 43.9 | 66.8 | 66.5 |  |  |  |  |  |  |  |  | 
COc1ccc(C2OCCN2C)cc1 (stereo not drawn) | > 100 | > 100 |  | > 100 |  | > 100 | > 100 | > 100 | > 100 | > 100 |  |  |  |  |  |  |  |  | 
N#C/C(=C\c1ccc([N+](=O)[O-])s1)c1nc2cc(Cl)ccc2s1 |  | 4.06 | > 100 | 0.622 |  | > 100 | 2.36 | 3.91 |  | > 100 | 1550 | 2.75 | 0.246 | 0.264 | 690 | 0.773 | 0.323 |  | 
CS(=O)(=O)c1nc(-c2cc3c(c(S(C)(=O)=O)n2)CCC3)cc2c1CCCC2 | 38 | > 100 | > 100 | > 100 | > 100 | > 100 | > 100 | > 100 | 29.6 |  |  |  |  |  |  |  |  |  | 
COC(=O)c1c(CC(Cc2ccc3c(c2)CCCC3)C(=O)OC)ccc2c1CCCC2 (stereo not drawn) | > 100 | > 100 | > 100 | > 100 | 42.4 | > 100 |  | > 100 | > 100 | 86.7 |  |  |  |  |  |  |  |  | 
C=C(C)C1CC/C(C)=C/CC[C@]2(C)O[C@@H]2CCC2=CC1OC2=O (stereo partly drawn) | 49.1 | > 100 | > 100 | > 100 |  | 27.7 | > 100 | > 100 | > 100 | 51.5 | > 100000 | 18.4 | 42.3 | 14.6 | > 100000 | 36.8 | 19 | 19 | 78.8
CN(C)CCNC(=O)c1cccc2cc3cc(O)ccc3nc12 |  | 3.88 |  | 6.53 | 2.37 | 11.8 | 2.48 | 3.24 | 2.74 |  |  |  |  |  |  |  |  |  | 
O=Nn1c2ccccc2c2cc([N+](=O)[O-])ccc21 | 31.6 | > 100 | 28.5 | > 100 | > 100 | > 100 |  | 38.3 | 32.9 |  |  |  |  |  |  |  |  |  | 
O=NN(CCF)C(=O)NC1CC2CCC1C2 (stereo not drawn) | > 100 | > 100 |  | > 100 | > 100 | > 100 |  | > 100 | > 100 |  |  |  |  |  |  |  |  |  | 
O=c1c2ccccc2nc(-c2ccccc2)n1NC(=S)Nc1ccc(Cl)cc1 | > 100 | > 100 |  | > 100 | > 100 | > 100 | > 100 | > 100 | > 100 | > 100 |  |  |  |  |  |  |  |  | 
